Measured values: US9878977B2, “N-((3,4,5-trimethoxystyryl)aryl)cinnamamide compounds as potential anticancer agents and process for the preparation thereof” (COUNCIL OF SCIENTIFIC & INDUSTRIAL RESEARCH, priority 2014, dated 2018)
Read-outs that look alike come from different tables or passages of the source.

How the values were obtained:
Assay type in all cases: cell-based, Human
Hop-62 = assay: SRB anti-proliferative assay, Hop-62
Experimental: (§1) The synthesized N-(3,4,5-trimethoxystyryl)aryl)cinnamamides were evaluated for their anti-proliferative activity in selected human cancer cell lines of breast cancer (MCF-7), prostate cancer (DU-145), lung cancer (Hop-62), cervical cancer (Hela), leukemia (K562), ovarian cancer (SK-OV-3), colon cancer (Colo-205), pancreatic (MAIPA-CA-2) by using sulforhodamine B (SRB) method (Vichai, V.; Kirtikara, K. Nat. Protoc. 2006, 1, 1112). […] CA-4 was used as the reference compound.

DU-145 = assay: SRB anti-proliferative assay, DU-145
Experimental: as §1

Colo-205 = assay: SRB anti-proliferative assay, Colo-205
Experimental: as §1

MCF-7 = assay: SRB anti-proliferative assay, MCF-7
Experimental: as §1

K562 = assay: SRB anti-proliferative assay, K562
Experimental: as §1

MAIPA-CA-2 = assay: SRB anti-proliferative assay, MAIPA-CA-2; conditions: read-out: GI50 MAIPA-CA-2
Experimental: as §1

SK-OV-3 = assay: SRB anti-proliferative assay, SK-OV-3
Experimental: as §1

Hela = assay: SRB anti-proliferative assay, Hela; conditions: read-out: GI50 Hela
Experimental: as §1

[1] = Homo sapiens, HOP-62, read-out: GI50 Hop-62
[2] = Homo sapiens, DU-145, read-out: GI50 DU-145
[3] = Homo sapiens, COLO 205, read-out: GI50 Colo-205
[4] = Homo sapiens, MCF7, read-out: GI50 MCF-7
[5] = Homo sapiens, K562, read-out: GI50 K562
[6] = Homo sapiens, SK-OV-3, read-out: GI50 SK-OV-3
[7] = HOP-62, Human lung cancer, concentration of drug causing 50% inhibition of cell growth, read-out: GI50 Hop-62
[8] = DU-145, Human prostate cancer, concentration of drug causing 50% inhibition of cell growth, read-out: GI50 DU-145
[9] = COLO 205, Human colon cancer, concentration of drug causing 50% inhibition of cell growth, read-out: GI50 Colo-205
[10] = MCF7, Human breast cancer, concentration of drug causing 50% inhibition of cell growth, read-out: GI50 MCF-7
[11] = K562, Human leukemia, concentration of drug causing 50% inhibition of cell growth, read-out: GI50 K562
[12] = Human pancreatic, concentration of drug causing 50% inhibition of cell growth
[13] = SK-OV-3, Human ovarian cancer, concentration of drug causing 50% inhibition of cell growth, read-out: GI50 SK-OV-3
[14] = Human cervical cancer, concentration of drug causing 50% inhibition of cell growth

| SMILES | GI50 (Hop-62; [1]) [nM] | GI50 (DU-145; [2]) [nM] | GI50 (Colo-205; [3]) [µM] | GI50 (MCF-7; [4]) [nM] | GI50 (K562; [5]) [nM] | GI50 (MAIPA-CA-2; Homo sapiens) [µM] | GI50 (SK-OV-3; [6]) [µM] | GI50 (Hela; Homo sapiens) [µM] | GI50 (Hop-62; [7]) [nM] | GI50 (DU-145; [8]) [nM] | GI50 (Colo-205; [9]) [µM] | GI50 (MCF-7; [10]) [nM] | GI50 (K562; [11]) [nM] | GI50 (MAIPA-CA-2; [12]) [µM] | GI50 (SK-OV-3; [13]) [µM] | GI50 (Hela; [14]) [µM] |
| --- | --- | --- | --- | --- | --- | --- | --- | --- | --- | --- | --- | --- | --- | --- | --- | --- |
| C#CCOc1cccc(/C=C/C(=O)Nc2c(C=Cc3cc(OC)c(OC)c(OC)c3)ccc(OC)c2O)c1 [Compound 20h, (E)-N-(2-Hydroxy-3-methoxy-6-(3,4,5-trimethoxystyryl)phenyl)-3-(3-(prop-2-ynyloxy)phenyl)acrylamide] | > 100000 | 96400 | > 100 | 11600 | > 100000 | > 100 | > 100 | > 100 |  |  |  |  |  |  |  |  |
| COc1ccc(C=Cc2cc(OC)c(OC)c(OC)c2)c(NC(=O)/C=C/c2ccc(Cl)cc2)c1O [Compound 20q, (E)-3-(4-Chlorophenyl)-N-(2-hydroxy-3-methoxy-6-(3,4,5-trimethoxystyryl)phenyl)acrylamide] |  |  |  |  |  |  |  |  | 79400 | 54100 | > 100 | 55500 | 24900 | > 100 | 62.6 | 38.8 |
| COc1ccc(/C=C/C(=O)Nc2c(C=Cc3cc(OC)c(OC)c(OC)c3)ccc(OC)c2O)cc1OC [Compound 20s, (E)-3-(3,4-Dimethoxyphenyl)-N-(2-hydroxy-3-methoxy-6-(3,4,5-trimethoxystyryl)phenyl)acrylamide] |  |  |  |  |  |  |  |  | 90 | 60 | 0.099 | 56 | 94 | 29.9 | 0.099 | 7.5 |
| COc1cc(/C=C/C(=O)Nc2c(C=Cc3cc(OC)c(OC)c(OC)c3)ccc(OC)c2O)ccc1O [Compound 20t, (E)-N-(2-Hydroxy-3-methoxy-6-(3,4,5-trimethoxystyryl)phenyl)-3-(4-hydroxy-3-methoxyphenyl)acrylamide] |  |  |  |  |  |  |  |  | 79 | 72 | 0.098 | 60 | 93 | 0.098 | 0.096 | 0.09 |
| COc1cc(/C=C/C(=O)Nc2c(C=Cc3cc(OC)c(OC)c(OC)c3)ccc(OC)c2O)ccc1N [Compound 20v, (E)-3-(4-Amino-3-methoxyphenyl)-N-(2-hydroxy-3-methoxy-6-(3,4,5-trimethoxystyryl)phenyl)acrylamide] |  |  |  |  |  |  |  |  | 35 | 85 | 0.086 | 74 | 82 | 0.097 | 0.094 | 0.09 |
| COc1ccc(/C=C/C(=O)Nc2c(C=Cc3cc(OC)c(OC)c(OC)c3)ccc(OC)c2O)cc1[N+](=O)[O-] [Compound 20y, (E)-N-(2-Hydroxy-3-methoxy-6-(3,4,5-trimethoxystyryl)phenyl)-3-(4-methoxy-3-nitrophenyl)acrylamide] |  |  |  |  |  |  |  |  | 71300 | 64700 | > 100 | 19400 | 46800 | > 100 | 52.6 | 49.2 |
| COc1ccc(C=Cc2cc(OC)c(OC)c(OC)c2)c(NC(=O)/C=C/c2ccc([N+](=O)[O-])cc2)c1O [Compound 20o, (E)-N-(2-Hydroxy-3-methoxy-6-(3,4,5-trimethoxystyryl)phenyl)-3-(4-nitrophenyl)acrylamide] | 61 | 85 | 10.3 | 72 | 97 | 40.8 | 17 | 15.7 |  |  |  |  |  |  |  |  |
| COc1ccc(C=Cc2cc(OC)c(OC)c(OC)c2)c(NC(=O)/C=C/c2ccc(F)c(F)c2)c1O [Compound 20aa, (E)-3-(3,4-Difluorophenyl)-N-(2-hydroxy-3-methoxy-6-(3,4,5-trimethoxystyryl)phenyl)acrylamide] | 43600 | 45 | 74.9 | 31 | 99 | 74 | 29.8 | 29.2 |  |  |  |  |  |  |  |  |
| COc1cccc(/C=C/C(=O)Nc2c(C=Cc3cc(OC)c(OC)c(OC)c3)ccc(OC)c2O)c1 [Compound 20f, (E)-N-(2-Hydroxy-3-methoxy-6-(3,4,5-trimethoxystyryl)phenyl)-3-(3-methoxyphenyl)acrylamide] |  |  |  |  |  |  |  |  | 65400 | > 100000 | > 100 | 59500 | 98 | 93.9 | 17.6 | 18.1 |
| COc1cc(/C=C/C(=O)Nc2c(C=Cc3cc(OC)c(OC)c(OC)c3)ccc(OC)c2O)ccc1[N+](=O)[O-] [Compound 20u, (E)-N-(2-Hydroxy-3-methoxy-6-(3,4,5-trimethoxystyryl)phenyl)-3-(3-methoxy-4-nitrophenyl)acrylamide] |  |  |  |  |  |  |  |  | 84 | 75 | 0.096 | 95 | 96 | 23.5 | 7.9 | 0.099 |
| COc1ccc(C=Cc2cc(OC)c(OC)c(OC)c2)c(NC(=O)/C=C/c2cccc(O)c2)c1O [Compound 20g, (E)-N-(2-Hydroxy-3-methoxy-6-(3,4,5-trimethoxystyryl)phenyl)-3-(3-hydroxyphenyl)acrylamide] | 82 | 70 | 13.4 | 63 | 94 | 0.098 | 0.097 | 0.0949 |  |  |  |  |  |  |  |  |
| C=CCOc1cccc(/C=C/C(=O)Nc2c(C=Cc3cc(OC)c(OC)c(OC)c3)ccc(OC)c2O)c1 [Compound 20i, (E)-3-(3-(Allyloxy)phenyl)-N-(2-hydroxy-3-methoxy-6-(3,4,5-trimethoxystyryl)phenyl)acrylamide] |  |  |  |  |  |  |  |  | 60 | 85 | 18 | 83 | 91 | 0.098 | 0.082 | 0.0787 |
| COc1ccc(/C=C/C(=O)Nc2c(C=Cc3cc(OC)c(OC)c(OC)c3)ccc(OC)c2O)cc1O [Compound 20x, (E)-N-(2-hydroxy-3-methoxy-6-(3,4,5-trimethoxystyryl)phenyl)-3-(3-hydroxy-4-methoxyphenyl)acrylamide] |  |  |  |  |  |  |  |  | 17100 | 117 | > 100 | 95 | 23700 | 46.3 | 1.8 | 15.9 |
| COc1ccc(/C=C/C(=O)Nc2c(C=Cc3cc(OC)c(OC)c(OC)c3)ccc(OC)c2O)cc1N [Compound 20z, (E)-3-(3-Amino-4-methoxyphenyl)-N-(2-hydroxy-3-methoxy-6-(3,4,5-trimethoxystyryl)phenyl)acrylamide] |  |  |  |  |  |  |  |  | 44 | 79 | 0.089 | 50 | 89 | 14.3 | 0.097 | 0.091 |
| COc1ccc(C=Cc2cc(OC)c(OC)c(OC)c2)c(NC(=O)/C=C/c2cc(OC)c(OC)c(OC)c2)c1O [Compound 20ab, (E)-N-(2-Hydroxy-3-methoxy-6-(3,4,5-trimethoxystyryl)phenyl)-3-(3,4,5-trimethoxyphenyl)acrylamide] | 24800 | 95 | 76 | 79 | 28000 | 64.5 | 20.9 | 14.9 |  |  |  |  |  |  |  |  |
| COc1ccc(C=Cc2cc(OC)c(OC)c(OC)c2)c(NC(=O)/C=C/c2ccc(F)cc2)c1O [Compound 20r, (E)-3-(4-Fluorophenyl)-N-(2-hydroxy-3-methoxy-6-(3,4,5-trimethoxystyryl)phenyl)acrylamide] |  |  |  |  |  |  |  |  | 43000 | 83 | 67.6 | 66 | 23500 | 78.1 | 47.5 | 24 |
